SMILES strings stand for the structures. Where a name gives a salt, the structure may show the parent alone. Bounds are passed on as bounds.

Data on 13 compounds can be found in patent US10071074B2, “Thieno-indole moieties and methods of treating using the same” (NERVIANO MEDICAL SCIENCES S.R.L., priority 2012, dated 2018).

The first experiment deals with A2780 human ovarian cancer cells. Briefly: In vitro cell proliferation assay (CellTiter-Glo). In kind it is cell-based. Conditions: A2780 human ovarian cancer cells, 72 h treatment, CellTiter-Glo; read-out: IC50 value. The protocol: A2780 human ovarian and MCF7 human breast cancer cells (1250 cells/well) were seeded in white 384 well-plates in complete medium (RPMI1640 or EMEM plus 10% Fetal bovine serum) and treated with compounds dissolved in 0.1% DMSO, 24 h after seeding. The cells were incubated at 37° C. and 5% CO2 and after 72 h the plates were processed using CellTiter-Glo assay (Promega) following the manufacturer's instruction.
CellTiter-Glo is a homogenous method based on the quantification of the ATP present, an indicator of metabolitically active cells. ATP is quantified using a system based on luciferase and D-luciferin resulting into light generation. The luminescent signal is proportional to the number of cells present in culture.
Briefly, 25 μL/well of reagent solution are added to each well and after 5 minutes shaking microplates are read by a luminometer. The luminescent signal is proportional to the number of cells present in culture.
In general terms: In ATP-based viability assays light output follows the ATP content of the culture.
On to `Cc1csc2c1[C@@]13C[C@@H]1CN(C(=O)c1ccc4c(NC(=O)c5ccc6cc[nH]c6c5)c[nH]c4c1)C3=CC2=O` [Compd. 5, N-(6-{[(3bR,4aS)-3-methyl-8-oxo-4a,5-dihydro-4H-cyclopropa[c]thieno[3,2-e]indol-6(8H)-yl]carbonyl}-1H-indol-3-yl)-1H-indole-6-carboxamide], for which the IC50 is less than 50 nM.

`Cc1csc2c1[C@]13C[C@H]1CN(C(=O)/C=C/c1c[nH]c4ncccc14)C3=CC2=O` [Compd. 7, (3bS,4aR)-3-methyl-6-[(2E)-3-(1H-pyrrolo[2,3-b]pyridin-3-yl)prop-2-enoyl]-4,4a,5,6-tetrahydro-8H-cyclopropa[c]thieno[3,2-e]indo-8-one]: the IC50 was less than 50 nM.

In the case of `Cc1csc2c(O)cc3c(c12)[C@H](CCl)CN3C(=O)c1cc2cc(NC(=O)c3cc4cc(OCCN5CCCC5)ccc4[nH]3)ccc2[nH]1` [compound 17, N-(2-{[(8S)-8-(chloromethyl)-4-hydroxy-1-methyl-7,8-dihydro-6H-thieno[3,2-e]indol-6-yl]carbonyl}-1H-indol-5-yl)-5-[2-(pyrrolidin-1-yl)ethoxy]-1H-indole-2-carboxamide], the IC50 was less than 0.1 nM.

Turning to `Cc1csc2c(O)cc3c(c12)[C@H](CCl)CN3C(=O)c1cc2cc(NC(=O)c3cc4cc(NC(=O)OC(C)(C)C)ccc4[nH]3)ccc2[nH]1` [Compd. 18], the IC50 is less than 0.01 nM.

Regarding `Cc1csc2c1[C@]13C[C@H]1CN(C(=O)c1cc(NC(=O)c4cc(NC(=O)c5cc([N+](=O)[O-])cn5C)cn4C)cn1C)C3=CC2=O` [compound 6, 1-methyl-N-(1-methyl-5-{[(3bS,4aR)-3-methyl-8-oxo-4a,5-dihydro-4H-cyclopropa[c]thieno[3,2-e]indol-6(8H)-yl]carbonyl}-1H-pyrrol-3-yl)-4-4{[(1-methyl-4-nitro-1H-pyrrol-2-yl)carbonyl]amino}-1H-pyrrole-2-carboxamide], the IC50 is less than 50 nM.

Consider `Cc1csc2c1[C@@]13C[C@@H]1CN(C(=O)/C=C/c1c[nH]c4ncccc14)C3=CC2=O` [compound 8, (3bR,4aS)-3-methyl-6-[(2E)-3-(1H-pyrrolo[2,3-b]pyridin-3-yl)prop-2-enoyl]-4,4a,5,6-tetrahydro-8H-cyclopropa[c]thieno[3,2-e]indol-8-one], for which the IC50 was less than 0.01 nM.

Turning to `Cc1csc2c(O)cc3c(c12)[C@H](CCl)CN3C(=O)c1cc2cc(OCCN3CCCC3)ccc2[nH]1` [Compd. 37, [(8S)-8-(chloromethyl)-4-hydroxy-1-methyl-7,8-dihydro-6H-thieno[3,2-e]indol-6-yl]{5-[2-(pyrrolidin-1-yl)ethoxy]-1H-indol-2-yl}methanone hydrochloride], the half-maximal inhibitory concentration (IC50) was less than 0.01 nM.

For the compound `Cc1csc2c1[C@@]13C[C@@H]1CN(C(=O)c1cc4cc(NC(=O)c5cc6cc(NC(=O)OC(C)(C)C)ccc6[nH]5)ccc4[nH]1)C3=CC2=O` [compound 20, tert-butyl {2-[(2-{[(3bR,4aS)-3-methyl-8-oxo-4a,5-dihydro-4H-cyclopropa[c]thieno[3,2-e]indol-6(8H)-yl]carbonyl}-1H-indol-5-yl)carbamoyl]-1H-indol-5-yl}carbamate], the IC50 was less than 0.1 nM.

On to `Cc1csc2c1[C@]13C[C@H]1CN(C(=O)Nc1cc(C(=O)Nc4cc(C(=O)Nc5cc(C(=O)NCCC(N)=O)n(C)c5)n(C)c4)n(C)c1)C3=CC2=O` [compound 9, (3bS,4aR)-N-(5-{[5-({5-[(3-amino-3-oxopropyl)carbamoyl]-1-methyl-1H-pyrrol-3-yl}carbamoyl)-1-methyl-1H-pyrrol-3-yl]carbamoyl}-1-methyl-1H-pyrrol-3-yl)-3-methyl-8-oxo-4a,5-dihydro-4H-cyclopropa[c]thieno[3,2-e]indole-6(8H)-carboxamide], for which the IC50 is less than 50 nM.

`Cc1csc2c(O)cc3c(c12)[C@H](CCl)CN3C(=O)c1ccc2c(NC(=O)c3ccc4cc[nH]c4c3)c[nH]c2c1` [Compd. 1]: the IC50 is less than 50 nM.

The same experiment, now with this note: Homo sapiens, A2780, 72 h, read-out: IC50 value.
Take `Cc1csc2c(OC(=O)N3CCN(C)CC3)cc3c(c12)[C@H](CCl)CN3C(=O)c1cc2cc(NC(=O)c3cc4cc(N)ccc4[nH]3)ccc2[nH]1` [compound 23, (8S)-6-[(5-{[(5-amino-1H-indol-2-yl)carbonyl]amino}-1H-indo-2-yl)carbonyl]-8-(chloromethyl)-1-methyl-7,8-dihydro-6H-thieno[3,2-e]indol-4-yl 4-methylpiperazine-1-carboxylate hydrochloride]: the IC50 is less than 50 nM.

On to `Cc1csc2c(OC(=O)N3CCN(C)CC3)cc3c(c12)[C@H](CCl)CN3C(=O)c1cc2cc(NC(=O)c3cc4cc(NC(=O)OC(C)(C)C)ccc4[nH]3)ccc2[nH]1` [Compd. 22, (8S)-6-({5-[({5-[(tert-butoxycarbonyl)amino]-1H-indol-2-yl}carbonyl)amino]-1H-indol-2-yl}carbonyl)-8-(chloromethyl)-1-methyl-7,8-dihydro-6H-thieno[3,2-e]indol-4-yl 4-methylpiperazine-1-carboxylate], for which the IC50 was less than 0.1 nM.

In another experiment the target is cathepsin B (Homo sapiens, UniProt P07858). Briefly: Release of a drug moiety from a conjugate in presence of cathepsin. The experiment is classed as biochemical. The conditions noted are these: 0.2 unit cathepsin B, sodium acetate buffer pH 5.5, 1 mM Cys, 2 hours at 40° C., HPLC ESI-MS analysis. The protocol: The conjugate A1 was incubated with 0.2 unit of cathepsin B in sodium acetate buffer pH 5.5 and 1 mM Cys for 2 hours at 40° C.
Disappearance of the conjugate A1 and release of the corresponding compound of formula (II), i.e. compd. 37, as well as of its precursor A3, confirms the breaking of the Z peptidic linker of the conjugate.
On to `Cc1csc2c(OC(=O)N(C)CCN(C)C(=O)OCc3ccc(NC(=O)[C@H](CCCNC(N)=O)NC(=O)[C@@H](NC(=O)CCCCCN4C(=O)CC(SC[C@H](N)C(=O)O)C4=O)C(C)C)cc3)cc3c(c12)[C@H](CCl)CN3C(=O)c1cc2cc(OCCN3CCCC3)ccc2[nH]1` (stereo partly shown) [conjugate A1], for which the “release of the compound of formula (II) (compd. 37) from the conjugate” value is on record as “Complete release”.

A word on the IC50: it is the midpoint of a concentration-inhibition curve.
